Test results reported in patent US7939532B2, “Heterocyclyl pyridyl sulfonamide derivatives, their manufacture and use as pharmaceutical agents” (Hoffmann-La Roche Inc., priority 2006, dated 2011).
Where a name gives a salt, the structure may show the parent alone.

System: HCT 116 cells (human colon carcinoma, ATCC-No. CCl-247)
Test: CellTiter-Glo Luminescent Cell Viability Assay in HCT 116 cells
Assay type: cell-based
Conditions: HCT 116 cell viability, CellTiter-Glo (ATP luminescence), 5 days (120 h) incubation, 10 concentrations 30 μM to 0.0015 μM, triplicate
Source text: CellTiter-Glo™ Assay in HCT 116 Cells
The CellTiter-Glo™ Luminescent Cell Viability Assay (Promega) is a homogeneous method of determining the number of viable cells in culture based on quantitation of the ATP present, which signals the presence of metabolically active cells.
HCT 116 cells (human colon carcinoma, ATCC-No. CCl-247) were cultivated in RPMI 1640 medium with GlutaMAX™ I (Invitrogen, Cat-No. 61870-010), 5% Fetal Calf Serum (FCS, Sigma Cat-No. F4135 (FBS)); 100 Units/ml penicillin/100 μg/ml streptomycin (=Pen/Strep from Invitrogen Cat. No. 15140). For the assay the cells were seeded in 384 well plates, 1000 cells per well, in the same medium. The next day the test compounds were added in various concentrations ranging from 30 μM to 0.0015 μM (10 concentrations, 1:3 diluted). After 5 days the CellTiter-Glo™ assay was done according to the instructions of the manufacturer (CellTiter-Glo™ Luminescent Cell Viability Assay, from Promega). In brief the cell-plate was equilibrated to room temperature for approximately 30 minutes and than the CellTiter-Glo™ reagent was added. The contents were carefully mixed for 15 minutes to induce cell lysis. After 45 minutes the luminescent signal was measured in Victor 2, (scanning multiwell spectrophotometer, Wallac).
• Medium: RPMI 1640 with GlutaMAX™ I (Invitrogen, Cat-Nr. 61870), 5% FCS (Sigma Cat.-No. F4135), Pen/Strep (Invitrogen, Cat No. 15140). • HCT116 (ATCC-No. CCl-247): 1000 cells in 60 μl per well of 384 well plate (Greiner 781098, μClear-plate white) • After seeding incubate plates 24 h at 37° C., 5% CO2 2nd. Day: Induction (Treatment with Compounds, 10 Concentrations):
In order to achieve a final concentration of 30 μM as highest concentration 3.5 μl of 10 mM compound stock solution were added directly to 163 μl media. Then step e) of the dilution procedure described below, was followed.

O=C(NS(=O)(=O)c1ccc(N2CCN(c3ccccc3)CC2)nc1)c1ccc(F)cc1C(F)(F)F [Example 1-18, 6-(4-Phenyl-piperazin-1-yl)-pyridine-3-sulfonic acid 4-fluoro-2-trifluoromethyl-benzoylamide; sodium salt] and Cc1cccc(N2CCN(c3ccc(S(=O)(=O)NC(=O)c4ccc(F)cc4C(F)(F)F)cn3)CC2)c1 [Example 1-3, 6-(4-m-Tolyl-piperazin-1-yl)-pyridine-3-sulfonic acid 4-fluoro-2-trifluoromethyl-benzoylamide; sodium salt] fall in the same range of IC50: 1 to 10 µM for the first, 1 to 10 µM for the second.

O=C(NS(=O)(=O)c1ccc(N2CCN(c3ccc(F)cc3F)CC2)nc1)c1ccc(F)cc1C(F)(F)F [Example 1-20, 6-[4-(2,4-Difluoro-phenyl)-piperazin-1-yl]-pyridine-3-sulfonic acid 4-fluoro-2-trifluoromethyl-benzoylamide; sodium salt] and O=C(NS(=O)(=O)c1ccc(N2CCN(c3ccccc3F)CC2)nc1)c1ccc(F)cc1C(F)(F)F [Example 1-19, 6-[4-(2-Fluoro-phenyl)-piperazin-1-yl]-pyridine-3-sulfonic acid 4-fluoro-2-trifluoromethyl-benzoylamide; sodium salt] fall in the same range of IC50: 1 to 10 µM for the first, 1 to 10 µM for the second.

COc1ccc(N2CCN(c3ccc(S(=O)(=O)NC(=O)c4ccc(Cl)cc4C(F)(F)F)cn3)CC2)cc1 [Example 1-9, 6-[4-(4-Methoxy-phenyl)-piperazin-1-yl]-pyridine-3-sulfonic acid 4-chloro-2-trifluoromethyl-benzoylamide] and COc1ccccc1N1CCN(c2ccc(S(=O)(=O)NC(=O)c3ccc(Cl)cc3C(F)(F)F)cn2)CC1 [Example 1-13, 6-[4-(2-Methoxy-phenyl)-piperazin-1-yl]-pyridine-3-sulfonic acid 4-chloro-2-trifluoromethyl-benzoylamide] fall in the same range of IC50: 1 to 10 µM for the first, 1 to 10 µM for the second.

O=C(NS(=O)(=O)c1ccc(N2CCN(c3ccc(F)cc3)CC2)nc1)c1ccc(F)cc1C(F)(F)F [Example 1-7, 6-[4-(4-Fluoro-phenyl)-piperazin-1-yl]-pyridine-3-sulfonic acid 4-fluoro-2-trifluoromethyl-benzoylamide; ammonium salt] and O=C(NS(=O)(=O)c1ccc(N2CCN(c3ccc(F)cc3)CC2)nc1)c1ccc(F)cc1Cl [Example 1-17, 6-[4-(4-Fluoro-phenyl)-piperazin-1-yl]-pyridine-3-sulfonic acid 2-chloro-4-fluoro-benzoylamide; sodium salt] fall in the same range of IC50: 1 to 10 µM for the first, 1 to 10 µM for the second.

COc1cc(Cl)ccc1C(=O)NS(=O)(=O)c1ccc(N2CCN(c3ccc(F)cc3)CC2)nc1 [Example 1-11, 6-[4-(4-Fluoro-phenyl)-piperazin-1-yl]-pyridine-3-sulfonic acid 4-chloro-2-methoxy-benzoylamide] and O=C(NS(=O)(=O)c1ccc(N2CCN(c3ccc(F)cc3)CC2)nc1)c1ccc(Cl)cc1Cl [Example 1-16, 6-[4-(4-Fluoro-phenyl)-piperazin-1-yl]-pyridine-3-sulfonic acid 2,4-dichloro-benzoylamide; sodium salt] cannot be ordered by IC50: 1.25 µM for the first, 1 to 10 µM for the second.

O=C(NS(=O)(=O)c1ccc(N2CCN(c3ccccn3)CC2)nc1)c1ccc(F)cc1Cl [Example 1-5, 6-(4-Pyridin-2-yl-piperazin-1-yl)-pyridine-3-sulfonic acid 2-chloro-4-fluoro-benzoylamide; ammonium salt] and O=C(NS(=O)(=O)c1ccc(N2CCN(c3ccccn3)CC2)nc1)c1ccc(Cl)cc1Cl [Example 1-1, 6-(4-Pyridin-2-yl-piperazin-1-yl)-pyridine-3-sulfonic acid 2,4-dichloro-benzoylamide; ammonium salt] cannot be ordered by IC50: 1 to 10 µM for the first, 3.35 µM for the second.

O=C(NS(=O)(=O)c1ccc(N2CCN(c3ccccc3)CC2)nc1)c1ccc(Cl)cc1Cl [Example 1-15, 6-(4-Phenyl-piperazin-1-yl)-pyridine-3-sulfonic acid 2,4-dichloro-benzoylamide; sodium salt] and O=C(NS(=O)(=O)c1ccc(N2CCN(c3ccccc3)CC2)nc1)c1ccc(F)cc1Cl [Example 1-10, 6-(4-Phenyl-piperazin-1-yl)-pyridine-3-sulfonic acid 2-chloro-4-fluoro-benzoylamide] fall in the same range of IC50: 1 to 10 µM for the first, 1 to 10 µM for the second.

O=C(NS(=O)(=O)c1ccc(N2CCC3(CC2)OCCCO3)nc1)c1ccc(Cl)cc1C(F)(F)F [Example 1-2, 6-(1,5-Dioxa-9-aza-spiro[5.5]undec-9-yl)-pyridine-3-sulfonic acid 4-chloro-2-trifluoromethyl-benzoylamide; ammonium salt] and COc1cc(Cl)ccc1C(=O)NS(=O)(=O)c1ccc(N2CCC3(CC2)OCCCO3)nc1 [Example 1-12, 6-(1,5-Dioxa-9-aza-spiro[5.5]undec-9-yl)-pyridine-3-sulfonic acid 4-chloro-2-methoxy-benzoylamide] cannot be ordered by IC50: 4.28 µM for the first, 1 to 10 µM for the second.

COc1cc(Cl)ccc1C(=O)NS(=O)(=O)c1ccc(N2CCN(c3ccccc3)CC2)nc1 [Example 1-4, 6-(4-Phenyl-piperazin-1-yl)-pyridine-3-sulfonic acid 4-chloro-2-methoxy-benzoylamide] and COc1cc(Cl)ccc1C(=O)NS(=O)(=O)c1ccc(N2CCN(c3ccccc3OC)CC2)nc1 [Example 1-8, 6-[4-(2-Methoxy-phenyl)-piperazin-1-yl]-pyridine-3-sulfonic acid 4-chloro-2-methoxy-benzoylamide; ammonium salt] fall in the same range of IC50: 1 to 10 µM for the first, 1 to 10 µM for the second.

COc1ccccc1N1CCN(c2ccc(S(=O)(=O)NC(=O)c3ccc(F)cc3Cl)cn2)CC1 [Example 1-14, 6-[4-(2-Methoxy-phenyl)-piperazin-1-yl]-pyridine-3-sulfonic acid 2-chloro-4-fluoro-benzoylamide; sodium salt] and O=C(NS(=O)(=O)c1ccc(N2CCN(c3ccccn3)CC2)nc1)c1ccc(F)cc1C(F)(F)F [Example 1-6, 6-(4-Pyridin-2-yl-piperazin-1-yl)-pyridine-3-sulfonic acid 4-fluoro-2-trifluoromethyl-benzoylamide; ammonium salt] fall in the same range of IC50: 1 to 10 µM for the first, 1 to 10 µM for the second.
